Laboratory results from US8278442B2, “Bicyclic aryl and heteroaryl compounds for the treatment of metabolic disorders” (Prosidion Limited, priority 2007, dated 2012).

Assays:
mu-opioid receptor [1] = biological target: T1, mu-opioid receptor (Homo sapiens, UniProt P35372); experiment: GTPγS functional binding assay; assay type: biochemical; conditions: mu-opioid receptor expressing membranes, agonist DAMGO 10 nM, 35S-GTPγS binding
Description: GTPγS Functional Binding Assays
Mu-, kappa- or delta-opioid receptor expressing membranes (5-20 μg/well) were suspended in 50 mM HEPES buffer pH 7.6 containing 3 mM MgCl2, 120 mM NaCl, 150 pM GTPγS, 10 μg/mL saponin and 3 μM GDP (μ-opioid receptor assay) or 5 μM GDP (κ- and δ-opioid receptor assay) and were pre-incubated on 96-well plates with test compound or vehicle (1% DMSO) in a total volume of 160 μL for 10 min at rt (22° C.). Specific agonists DAMGO (10 nM final concentration), U-50,488 (30 nM final concentration) or SNC-80 (10 nM final concentration) were added respectively and the plates pre-incubated for a further 15 min at rt (22° C.) ^35S-GTPγS at a final concentration in the assay of 150 pM was then added to provide a total volume per well of 200 μL and the plates incubated for 45 min at 30° C. The contents of the wells were filtered and washed 5 times with chilled 50 mM Tris buffer pH 7.6 through H2O pre-soaked GF/B filters using a Perkin Elmer Filtermate. The filters were dried and upon application of scintillant the bound radioactive content for each well determined by scintillation counting in a Wallac TriLux Microbeta scintillation counter. Non-specific binding was determined in the presence of 10 μM GTPγS. IC50 values were determined by plotting log concentration test compound against percentage increase over non-stimulated ^35S-GTPγS binding.

mu-opioid receptor [2] = biological target: T1, mu-opioid receptor; experiment: Competition binding assay (3H-DAMGO); conditions: mu-opioid receptor expressing membranes, 0.5 nM 3H-DAMGO
Description: Competition Binding Assays
Mu-, kappa- or delta-opioid receptor expressing membranes (5-15 μg/well) were suspended in 50 mM Tris buffer pH 7.6 containing 5 mM MgCl2 and were incubated on 96-well plates with test compound or vehicle (1% DMSO) and either 0.5 nM ^3H-DAMGO, 0.8 nM ^3H—U-69,595 or 1.1 nM ^3H-DPDPE respectively in a total volume of 200 μL for 90 min at rt (22° C.). The contents of the wells were filtered and washed 5 times with chilled 50 mM Tris buffer pH 7.6 through H2O pre-soaked GF/B filters using a Perkin Elmer Filtermate. The filters were dried and upon application of scintillant the bound radioactive content for each well determined by scintillation counting in a Wallac TriLux Microbeta scintillation counter. Non-specific binding was determined in the presence of 2 μM Naloxone. IC50 values were determined by plotting log concentration test compound against specific binding and subsequent Ki values calculated.

T1 sequence (P35372 whole entry, species assumed): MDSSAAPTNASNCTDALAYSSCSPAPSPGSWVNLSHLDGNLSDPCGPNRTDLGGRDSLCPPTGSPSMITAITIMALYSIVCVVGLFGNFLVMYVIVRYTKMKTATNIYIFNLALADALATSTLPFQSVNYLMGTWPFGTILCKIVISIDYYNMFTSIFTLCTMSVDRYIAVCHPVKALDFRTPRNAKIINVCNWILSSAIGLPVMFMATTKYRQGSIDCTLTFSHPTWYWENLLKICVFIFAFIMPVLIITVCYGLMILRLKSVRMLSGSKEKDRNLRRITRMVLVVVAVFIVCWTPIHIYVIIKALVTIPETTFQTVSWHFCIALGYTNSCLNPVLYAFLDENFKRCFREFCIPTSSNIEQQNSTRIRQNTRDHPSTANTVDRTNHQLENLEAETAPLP

IC50 (mu-opioid receptor [1]): < 0.1 µM
Ki (mu-opioid receptor [2]): < 0.1 µM
SMILES: NC(=O)c1ccc(Oc2ccc(CNC3CCOCC3)c3ccccc23)nc1 [Example 16, 6-{4-[(Tetrahydropyran-4-ylamino)methyl]naphthalen-1-yloxy}nicotinamide]
